This is an account of results in PMC6616128, “Liquiritin, as a Natural Inhibitor of AKR1C1, Could Interfere With the Progesterone Metabolism” (Frontiers in Physiology, 2019).

Like-named read-outs stand apart in the source and are kept apart here.

The test addresses T1, AKR1C1 (Homo sapiens, UniProt Q04828).
T1 sequence (Q04828 1-323): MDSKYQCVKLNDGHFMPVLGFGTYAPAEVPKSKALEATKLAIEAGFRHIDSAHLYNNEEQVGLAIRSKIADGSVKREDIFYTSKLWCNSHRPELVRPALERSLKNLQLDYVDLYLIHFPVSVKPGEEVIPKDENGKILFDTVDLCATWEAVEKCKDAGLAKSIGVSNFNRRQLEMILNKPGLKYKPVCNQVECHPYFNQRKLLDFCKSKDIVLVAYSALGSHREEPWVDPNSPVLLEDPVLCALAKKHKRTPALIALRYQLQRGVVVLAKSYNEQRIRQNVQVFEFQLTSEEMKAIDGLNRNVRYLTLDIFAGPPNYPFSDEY
Briefly: Enzyme activity (NADPH) assay with s-tetralol, recombinant GST-AKR1C1.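 As to all read-outs here: GST-fused AKR1C1 expressed in E. coli and purified by glutathione affinity, control wells received DMSO instead of compound, duplicate samples from a single experiment.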 It is filed as biochemical. Further details: made in house; host or cells: Escherichia coli JM109. The conditions noted are these: for enzyme activity: CON 192.295568; for remaining activity at 2 µM: read-out: ratio (activity relative to CON).

Setting [1] is: 2 μM compound, Supplementary Table 1, CON 0.0122.
The mark [2] stands for this setting: 2 μM compound, Supplementary Table 1.
Where [3] appears, read: 2 μM compound, Supplementary Table 1, CON = 1.
Where [4] appears, read: 2 μM compound, Supplementary Table 1, read-out: % inhibition.

Method: GST-tagged recombinant AKR1C isoforms expressed JM109 was grown in Luria-Bertani broth (100 μg⋅ml-1 ampicillin, pH = 7.0) at 37°C with orbital shaking at 220 rpm. When cells achieved an OD600 nm between 0.4 and 0.6, 0.3 mM final concentration of isopropyl β-D-1-thiogalactopyranoside (IPTG) was added to the cultures and incubated for an additional 12 h at 25°C. Cells were harvested by centrifugation at 8000 g for 10 min, and the cell pellets were stored at -80°C for storage. The pellets were resuspended in 1 × PBS, pH = 7.4 and lysed by ultrasonication at ice-cold temperature using an UH-03 union instrument. The purification of glutathione-S-transferase (GST)-fusion AKR1C1, AKR1C2, and AKR1C3 were then carried out using ÄKTA systems from GE Healthcare as described in Handbook. The recombinant proteins were eluted in 50 mM Tris–HCl (pH = 8.0) with 20 mM reduced glutathione, fresh preparedly. Protein concentrations were determined using the Bradford protein assay kit. All proteins were aliquoted and stored at -80°C containing 20% glycerol.
To screen for the indicated inhibitor, the assay mixture was added with additional DMSO or 2 μM compounds. […] The inhibition patterns were determined by fitting initial velocity and inhibitor concentration into inhibition models using Graphpad Prism 6.0. All inhibition data were obtained from single experiments, with samples conducted in duplicate.
Firstly, we overexpressed recombinant human AKR1C in E. coli in the form of a GST-fusion protein, and then purified it by affinity chromatography on glutathione-Sepharose.
To screen for the inhibitors of AKR1C1, we developed a readily accessible indirect NADPH generating-based assay that can be used for high-throughput inhibitors screening. […] Wells were included containing enzyme and no inhibitor or 2 μM inhibitor.

For orientation: inhibition means the drop in the measured response relative to a control, in per cent. `COc1cc(/C=C/C(=O)CC(=O)/C=C/c2ccc(O)c(OC)c2)ccc1O` [Curcumin]: the slope under setting [1] amounted to 0.006283. In addition, the enzyme activity under setting [2] stood at 99.03 nmol/min/mg. In addition, the remaining activity at 2 µM under setting [3] came to 51.5%. Moreover, the inhibition at 2 µM under setting [4] was 48.5%.

Take `O=C(/C=C/c1ccc(O)cc1)CC(=O)/C=C/c1ccc(O)cc1` [Bisdemethoxycurcumin]: the slope under setting [1] is 0.0114. Moreover, the enzyme activity under setting [2] is on record as 180.2715 nmol/min/mg. Besides, the remaining activity at 2 µM under setting [3] turned out to be 93.8%. Besides, the inhibition at 2 µM under setting [4] came out at 6.25%.

The % inhibition is the relative decrease from the control value, in per cent. Take `COc1cc2c(c(OC)c1OC)-c1c(cc(OC)c(OC)c1OC)C[C@](C)(O)[C@@H](C)C2` [Schisandrol A]: under setting [2], the “% inhibition” value is given as -12.27% and the enzyme activity came to 215.8934 nmol/min/mg. For the same compound, the slope under setting [1] came out at 0.0137. Besides, under setting [3], the “ratio (activity relative to CON)” value amounted to 1.1227.

As for `C[C@@H]1CC[C@@]2(OC1)O[C@H]1C[C@H]3[C@@H]4CC=C5C[C@@H](O[C@@H]6O[C@H](CO)[C@@H](O[C@@H]7O[C@@H](C)[C@H](O)[C@@H](O)[C@H]7O)[C@H](O)[C@H]6O[C@@H]6O[C@@H](C)[C@H](O)[C@@H](O)[C@H]6O)CC[C@]5(C)[C@H]4CC[C@]3(C)[C@H]1[C@@H]2C` [Dioscin], under setting [1], the slope is given as 0.0134. For the same compound, under setting [2], the enzyme activity turned out to be 211.8854 nmol/min/mg. In addition, under setting [3], the remaining activity at 2 µM came out at 110%. Besides, under setting [4], the inhibition at 2 µM was -10.2%.

Regarding `C=C1C(=O)O[C@@H]2/C=C(\C)CC/C=C(\C)CC[C@@H]12` [Costundide], under setting [2], the “% inhibition” value stood at 40.47% and the enzyme activity was 114.4767 nmol/min/mg. In addition, the slope under setting [1] worked out at 0.007263. The “ratio (activity relative to CON)” value under setting [3] amounted to 0.5953.

With `COc1cc(-c2oc3cc(O)cc(O)c3c(=O)c2O)ccc1O` [Isorhamnetin], the slope under setting [1] is on record as 0.0125. Also, the enzyme activity under setting [2] turned out to be 197.0241 nmol/min/mg. Moreover, under setting [3], the remaining activity at 2 µM was determined as 102%. In addition, the inhibition at 2 µM under setting [4] is -2.46%.

On to `CC(C)=CCC[C@](C)(O[C@@H]1O[C@H](CO)[C@@H](O)[C@H](O)[C@H]1O)[C@H]1CC[C@]2(C)[C@@H]1[C@H](O)C[C@@H]1[C@@]3(C)CC[C@H](O)C(C)(C)[C@@H]3CC[C@]12C` [Ginsenoside CK], for which, under setting [2], the “% inhibition” value is listed as -0.56% and the enzyme activity is listed as 193.3764 nmol/min/mg. For the same compound, under setting [1], the slope is given as 0.0123. Also, under setting [3], the “ratio (activity relative to CON)” value amounted to 1.0056.

Consider (+)-Catechin hydrate, for which, under setting [2], the “% inhibition” value is listed as -7.87% and the enzyme activity turned out to be 207.427 nmol/min/mg. For the same compound, under setting [1], the slope is reported as 0.0132. Further, the “ratio (activity relative to CON)” value under setting [3] worked out at 1.0787.

For the compound `CC(C)(C)[C@]1(O)CC2OC(=O)CC23C(=O)OC2OC(=O)[C@H](O)C231` (stereo partly shown) [Bilobalide], the inhibition at 2 µM was 37.5%, the slope is given as 0.007623 and the remaining activity at 2 µM amounted to 62.5%. The enzyme activity under setting [2] turned out to be 120.151 nmol/min/mg.

`COc1cc2c(c(OC)c1OC)-c1c(cc(OC)c(OC)c1OC)C[C@H](C)[C@H](C)C2` [Schisandrin A]: the slope under setting [1] amounted to 0.0133. The enzyme activity under setting [2] is 209.2284 nmol/min/mg. For the same compound, the remaining activity at 2 µM under setting [3] was 109%. Moreover, under setting [4], the inhibition at 2 µM was -8.81%.

On to `COc1ccc(-c2cc(=O)c3c(OC)c(OC)c(OC)c(OC)c3o2)cc1OC` [Nobiletin], for which, under setting [1], the slope is recorded as 0.0127. Besides, the enzyme activity under setting [2] stood at 200.1315 nmol/min/mg. Further, the remaining activity at 2 µM under setting [3] was 104%. In addition, under setting [4], the inhibition at 2 µM was -4.07%.

Regarding `CC(C)=CCOc1c2occc2cc2ccc(=O)oc12` [Imperatorin], under setting [1], the slope is recorded as 0.0117. In addition, the enzyme activity under setting [2] is recorded as 184.7298 nmol/min/mg. For the same compound, the remaining activity at 2 µM under setting [3] amounted to 96.1%. Further, under setting [4], the inhibition at 2 µM stood at 3.93%.

Turning to `C[C@@H]1C(=O)O[C@H]2C[C@@]34[C@H]5C[C@@H](C(C)(C)C)[C@]36[C@@H](OC(=O)[C@@H]6O)O[C@@]4(C(=O)O5)[C@]21O` [Ginkgolide A], under setting [1], the slope is listed as 0.008406. Besides, the enzyme activity under setting [2] is reported as 132.4903 nmol/min/mg. In addition, the remaining activity at 2 µM under setting [3] turned out to be 68.9%. Besides, the inhibition at 2 µM under setting [4] came out at 31.1%.

Consider `COc1ccc(-c2oc3cc(O)cc(O)c3c(=O)c2O)cc1` [Kaempferide], for which the slope under setting [1] worked out at 0.0115. Besides, the enzyme activity under setting [2] worked out at 181.9828 nmol/min/mg. For the same compound, the remaining activity at 2 µM under setting [3] is 94.6%. Besides, the inhibition at 2 µM under setting [4] was found to be 5.36%.

For `O=c1c(-c2ccc(O)cc2)coc2cc(O)ccc12` [Daidzein], the slope under setting [1] is 0.007957. Also, the enzyme activity under setting [2] was 125.4199 nmol/min/mg. Besides, the remaining activity at 2 µM under setting [3] was 65.2%. For the same compound, the inhibition at 2 µM under setting [4] was found to be 34.8%.

As for `C[C@@H]1O[C@@H](Oc2c(-c3ccc(O)c(O)c3)oc3cc(O)cc(O)c3c2=O)[C@H](O)[C@H](O)[C@H]1O` [Quercitrin], the slope under setting [1] was determined as 0.0114. In addition, the enzyme activity under setting [2] stood at 180.0013 nmol/min/mg. Moreover, under setting [3], the remaining activity at 2 µM is 93.6%. In addition, under setting [4], the inhibition at 2 µM was found to be 6.39%.

In the case of `CC(C)=CC[C@@H](O)C1=CC(=O)c2c(O)ccc(O)c2C1=O` [Shikonin], under setting [1], the slope is 0.0134. Further, the enzyme activity under setting [2] was 210.4443 nmol/min/mg. In addition, the remaining activity at 2 µM under setting [3] came out at 109%. In addition, the inhibition at 2 µM under setting [4] is -9.44%.

Pseuginsenoside F11: under setting [2], the “% inhibition” value came out at 4.75% and the enzyme activity turned out to be 183.1536 nmol/min/mg. Moreover, the slope under setting [1] is 0.0116. Besides, the “ratio (activity relative to CON)” value under setting [3] is on record as 0.9525.

Consider `Oc1cc(O)c2c(c1)O[C@H](c1cc(O)c(O)c(O)c1)[C@H](O)C2` [(−)-Epigallocatechin], for which, under setting [2], the “% inhibition” value is recorded as -7.17% and the enzyme activity came to 206.076 nmol/min/mg. For the same compound, under setting [1], the slope was 0.0131. Also, the “ratio (activity relative to CON)” value under setting [3] was determined as 1.0717.

On to `COc1ccc(-c2coc3cc(O)ccc3c2=O)cc1O` [Calycosin], for which, under setting [1], the slope came out at 0.0116. Moreover, the enzyme activity under setting [2] worked out at 183.0185 nmol/min/mg. The remaining activity at 2 µM under setting [3] was 95.2%. Also, under setting [4], the inhibition at 2 µM worked out at 4.82%.

For `COc1cc2c(=O)c(-c3ccc(O)cc3)coc2cc1O[C@@H]1O[C@H](CO)[C@@H](O)[C@H](O)[C@H]1O` [Glycitin], under setting [2], the “% inhibition” value was 64.26% and the enzyme activity is reported as 68.722 nmol/min/mg. The slope under setting [1] is reported as 0.00436. Moreover, the “ratio (activity relative to CON)” value under setting [3] turned out to be 0.3574.

For the compound `O=c1c(O)c(-c2ccccc2)oc2cc(O)cc(O)c12` [3,5,7-Trihydroxyflavone], under setting [1], the slope is listed as 0.00928. Moreover, under setting [2], the enzyme activity came out at 146.2707 nmol/min/mg. Also, under setting [3], the remaining activity at 2 µM amounted to 76.1%. Moreover, the inhibition at 2 µM under setting [4] is 23.9%.

Turning to `CC1(C)C=Cc2c(ccc3c2OC[C@@H](c2ccc(O)cc2O)C3)O1` [Glabridin], the slope under setting [1] is 0.0136. Besides, the enzyme activity under setting [2] is 215.1279 nmol/min/mg. Further, the remaining activity at 2 µM under setting [3] is 112%. In addition, the inhibition at 2 µM under setting [4] was -11.9%.

`COc1cc2c(c(OC)c1OC)-c1c(cc3c(c1OC)OCO3)CC(C)C(C)C2` (stereo not shown) [Schizandrin B]: under setting [2], the “% inhibition” value was -23.91% and the enzyme activity is recorded as 238.2754 nmol/min/mg. Moreover, the slope under setting [1] worked out at 0.0151. Also, the “ratio (activity relative to CON)” value under setting [3] is 1.2391.

As for Salvianolic acid B, under setting [2], the “% inhibition” value was 31.38% and the enzyme activity is reported as 131.9499 nmol/min/mg. Also, the slope under setting [1] came to 0.008371. For the same compound, the “ratio (activity relative to CON)” value under setting [3] worked out at 0.6862.

As to `COc1cc2c(c(OC)c1OC)-c1c(cc3c(c1OC)OCO3)C[C@H](C)[C@@](C)(O)C2` [Schisandrol B], the slope under setting [1] was found to be 0.0137. The enzyme activity under setting [2] is recorded as 215.6683 nmol/min/mg. Under setting [3], the remaining activity at 2 µM was 112%. Moreover, the inhibition at 2 µM under setting [4] was -12.2%.

On to Echinacoside, for which, under setting [2], the “% inhibition” value is -7.12% and the enzyme activity amounted to 205.9859 nmol/min/mg. Moreover, the slope under setting [1] is on record as 0.0131. The “ratio (activity relative to CON)” value under setting [3] came out at 1.0712.

Take `Oc1cc(O)c2c(c1)O[C@H](c1ccc(O)c(O)c1)[C@H](O)C2` [Epicatechin]: the slope under setting [1] was found to be 0.0136. Also, the enzyme activity under setting [2] was 214.5874 nmol/min/mg. Moreover, the remaining activity at 2 µM under setting [3] was 112%. For the same compound, under setting [4], the inhibition at 2 µM was -11.6%.

Consider `COc1c2c(cc3oc(CO[C@@H]4O[C@H](CO)[C@@H](O)[C@H](O)[C@H]4O)cc(=O)c13)O[C@H](C(C)(C)O)C2` [Prim-O-glucosylcimifugin], for which, under setting [2], the “% inhibition” value was -1.55% and the enzyme activity worked out at 195.2678 nmol/min/mg. Under setting [1], the slope was 0.0124. Under setting [3], the “ratio (activity relative to CON)” value amounted to 1.0155.

In the case of Ginkgolide C, under setting [2], the “% inhibition” value turned out to be 31.9% and the enzyme activity is given as 130.9591 nmol/min/mg. For the same compound, the slope under setting [1] was determined as 0.008309. For the same compound, the “ratio (activity relative to CON)” value under setting [3] stood at 0.681.

On to `C[C@H]1CC[C@@H]2N(C1)C[C@H]1[C@@H]3C[C@H]4[C@@H](C[C@H](O)[C@H]5C[C@@H](O)CC[C@@]54C)[C@@H]3CC[C@@H]1[C@]2(C)O` [Peimine], for which, under setting [2], the “% inhibition” value came to 4.66% and the enzyme activity was found to be 183.3338 nmol/min/mg. For the same compound, under setting [1], the slope worked out at 0.0116. Under setting [3], the “ratio (activity relative to CON)” value was 0.9534.
